Assay results reported in patent US20090117083A1, “IMMUNOMODULATORY ALKALOIDS” (M N L PHARMA LIMITED, priority 2004, published 2009).
Where two headings read alike, the source gives them in different places.

How the values were obtained:
[1] = tested on: spleen cells; assay: Cytokine modulation in spleen cells (IFN-γ); format: cell-based, BALB/c mice
Procedure: BALB/c male and female mice bred and maintained at the University of Strathclyde under conventional conditions were used at varying age.
Cells suspensions were prepared by using the end of a syringe and grinding the spleen through a wire mesh. The cell suspension was then centrifuged at 1000 rpm for 5 minutes. To remove the erythrocytes, the cell pellet was resuspended in Boyle's solution (Tris 0.17M & Ammonium Chloride 0.16M) and centrifuged again for 5 minutes. The pellet was then washed in medium a further two times, then resuspended in 3 mls medium. A cell count was then carried out.
All spleen cell experiments were carried out in 96-well tissue culture plates. […] Unstimulated wells contained 100 μl of cells and 100 μl of medium. The stimulated wells contained 100 μl of cells plus 50 μl of LPS at 1 μg/ml or 50 μl anti-CD3 at 0.5 μg/ml and 50 μl of medium. The remaining wells contained 100 μl cells, 5 μl of MNLP compound and either 50 μl of anti-CD3 or medium alone.
The appropriate Mabs and standards were used according to the protocol described for IL-12 (described in Example 1, above).

[2] = tested on: N-acetyl-β-D-glucosaminidase; assay: Glycosidase inhibition: N-acetyl-β-D-glucosaminidase; format: biochemical, Bovine; conditions: 1 mg/ml
Procedure: (§1) All enzymes were purchased from Sigma, as were the appropriate p-nitrophenyl substrates. Assays were carried out in microtitre plates. Enzymes were assayed in 0.1M citric acid/0.2M di-sodium hydrogen phosphate (McIlvaine) buffers at the optimum pH for the enzyme. All assays were carried out at 20° C. For screening assays the incubation assay consisted of 10 μl of enzyme solution, 10 μl of inhibitor solution (made up in water) and 50 μl of the appropriate 5 mM p-nitrophenyl substrate (3.57 mM final conc.) made up in McIlvaine buffer at the optimum pH for the enzyme.
(§2) The reactions were stopped with 0.4M glycine (pH 10.4) during the exponential phase of the reaction, which was determined at the beginning of the assay using blanks with water, which were incubated for a range of time periods to measure the reaction rate using 5 mM substrate solution. Endpoint absorbances were read at 405 nm with a Biorad microtitre plate reader (Benchmark). Water was substituted for the inhibitors in the blanks.

[3] = target: T1, α-L-fucosidase (Bos taurus, UniProt Q2KIM0); assay: Glycosidase inhibition: α-L-fucosidase; format: biochemical, Bovine
T1 construct: purchased Sigma
T1 sequence (Q2KIM0 23-468): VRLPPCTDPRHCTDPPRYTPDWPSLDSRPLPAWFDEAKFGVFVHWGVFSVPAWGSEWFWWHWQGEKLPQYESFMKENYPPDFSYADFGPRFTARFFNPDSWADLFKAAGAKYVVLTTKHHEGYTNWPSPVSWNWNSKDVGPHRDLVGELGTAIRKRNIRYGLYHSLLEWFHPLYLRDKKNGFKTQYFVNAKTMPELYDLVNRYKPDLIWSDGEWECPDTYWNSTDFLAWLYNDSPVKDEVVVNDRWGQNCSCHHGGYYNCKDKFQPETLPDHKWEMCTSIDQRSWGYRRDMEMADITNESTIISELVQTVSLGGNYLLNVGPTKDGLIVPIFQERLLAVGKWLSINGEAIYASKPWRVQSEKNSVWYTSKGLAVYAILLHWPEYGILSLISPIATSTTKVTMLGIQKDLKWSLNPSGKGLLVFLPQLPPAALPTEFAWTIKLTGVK
Procedure: as §1, §2

[4] = tested on: Naringinase; assay: Glycosidase inhibition: Naringinase; format: biochemical, Penecillium decumbens; conditions: 1 mg/ml
Procedure: as §1, §2

[5] = target: T2, α-D-galactosidase (Coffea arabica, UniProt Q42656); assay: Glycosidase inhibition: α-D-galactosidase; format: biochemical, Green coffee beans (Coffea sp.)
T2 construct: purchased Sigma
Procedure: as §1, §2

[6] = tested on: β-D-glucosidase; assay: Glycosidase inhibition: β-D-glucosidase, almond; format: biochemical, Almonds (Prunus sp.); conditions: 1 mg/ml
Procedure: as §1, §2

[7] = tested on: B16-F10 tumour cells; assay: Control of lung metastasis in mice (B16-F10); format: in vivo, C57/bl6 mice; conditions: 50 mg/kg s/c on days 2 and 4; lungs on day 14
Procedure: Mice (C57/bl6 under i/p ketamine anaesthesia) were challenged i/v (tail vein) with 5×10^4 B16-F10 tumour cells in a final volume of 100 μl per mouse on day 0. Test compounds (50 mg/kg in 200 μl sterile non-pyrogenic saline) were administered sic (right flank) on days 2 and 4. On day 14 the mice were sacrifices and the lungs dissected and stained in Indian ink solution (150 ml bidistilled water, 30 ml India Ink, 4 drops NH4OH) for 10 minutes then fixed for at least 24 hr in Fakete's solution (90 ml 37% formaldehyde, 900 ml 70% EtOH and 45 ml glacial acetic acid). The metastases in the stained and fixed lungs could then be visualized, counted and photographed.

[8] = target: T3, α-D-glucosidase (Oryza sativa subsp. japonica, UniProt Q653V7); assay: Glycosidase inhibition: α-D-glucosidase, rice; format: biochemical, rice (Oryza sativa)
T3 construct: purchased Sigma
Procedure: as §1, §2

[9] = tested on: α-D-glucosidase; assay: Glycosidase inhibition: α-D-glucosidase, Bacillus; format: biochemical, Bacillus stearothermophilus; conditions: 1 mg/ml
Procedure: as §1, §2

[10] = target: T4, α-D-mannosidase (Canavalia ensiformis, UniProt C0HJB3); assay: Glycosidase inhibition: α-D-mannosidase; format: biochemical, Jack beans (Canavalia ensiformis)
T4 construct: purchased Sigma
Procedure: All enzymes were purchased from Sigma, as were the appropriate p-nitrophenyl substrates. Assays were carried out in microtitre plates. Enzymes were assayed in 0.1M citric acid/0.2M di-sodium hydrogen phosphate (McIlvaine) buffers at the optimum pH for the enzyme. All assays were carried out at 20° C.
Endpoint absorbances were read at 405 nm with a Biorad microtitre plate reader (Benchmark). Water was substituted for the inhibitors in the blanks.

[11] = target: T5, α-D-glucosidase (Saccharomyces cerevisiae, UniProt P53341); assay: Glycosidase inhibition (p-nitrophenyl substrate): α-D-glucosidase, yeast; format: biochemical, Saccharomyces cerevisiae (Baker's yeast); conditions: 1 mg/ml
T5 construct: purchased Sigma
Procedure: as §1, §2

[12] = tested on: β-D-galactosidase; assay: Glycosidase inhibition: β-D-galactosidase; format: biochemical, Bovine; conditions: 1 mg/ml
Procedure: as §1, §2

[13] = tested on: HSV-1 (SC16); conditions: versus infected untreated group
[14] = 1 mg/ml, read-out: % inhibition, fucosidase
[15] = read-out: % inhibition, galactosidase
[16] = 1 mg/ml, read-out: % inhibition, gluc (rice)
[17] = read-out: % inhibition, mannosidase
[18] = read-out: % inhibition, gluc (yeast)
[19] = read-out: % inhibition, α-fucosidase
[20] = 1 mg/ml, read-out: % inhibition, α-galactosidase
[21] = read-out: % inhibition, α-mannosidase
[22] = read-out: % inhibition, α-gluc (rice)
[23] = read-out: % inhibition, α-gluc (yeast)
[24] = 1 mg/ml, read-out: % inhibition, α-fucosidase
[25] = 1 mg/ml, read-out: % inhibition, α-gluc (rice)

T4 sequence (C0HJB3 whole entry): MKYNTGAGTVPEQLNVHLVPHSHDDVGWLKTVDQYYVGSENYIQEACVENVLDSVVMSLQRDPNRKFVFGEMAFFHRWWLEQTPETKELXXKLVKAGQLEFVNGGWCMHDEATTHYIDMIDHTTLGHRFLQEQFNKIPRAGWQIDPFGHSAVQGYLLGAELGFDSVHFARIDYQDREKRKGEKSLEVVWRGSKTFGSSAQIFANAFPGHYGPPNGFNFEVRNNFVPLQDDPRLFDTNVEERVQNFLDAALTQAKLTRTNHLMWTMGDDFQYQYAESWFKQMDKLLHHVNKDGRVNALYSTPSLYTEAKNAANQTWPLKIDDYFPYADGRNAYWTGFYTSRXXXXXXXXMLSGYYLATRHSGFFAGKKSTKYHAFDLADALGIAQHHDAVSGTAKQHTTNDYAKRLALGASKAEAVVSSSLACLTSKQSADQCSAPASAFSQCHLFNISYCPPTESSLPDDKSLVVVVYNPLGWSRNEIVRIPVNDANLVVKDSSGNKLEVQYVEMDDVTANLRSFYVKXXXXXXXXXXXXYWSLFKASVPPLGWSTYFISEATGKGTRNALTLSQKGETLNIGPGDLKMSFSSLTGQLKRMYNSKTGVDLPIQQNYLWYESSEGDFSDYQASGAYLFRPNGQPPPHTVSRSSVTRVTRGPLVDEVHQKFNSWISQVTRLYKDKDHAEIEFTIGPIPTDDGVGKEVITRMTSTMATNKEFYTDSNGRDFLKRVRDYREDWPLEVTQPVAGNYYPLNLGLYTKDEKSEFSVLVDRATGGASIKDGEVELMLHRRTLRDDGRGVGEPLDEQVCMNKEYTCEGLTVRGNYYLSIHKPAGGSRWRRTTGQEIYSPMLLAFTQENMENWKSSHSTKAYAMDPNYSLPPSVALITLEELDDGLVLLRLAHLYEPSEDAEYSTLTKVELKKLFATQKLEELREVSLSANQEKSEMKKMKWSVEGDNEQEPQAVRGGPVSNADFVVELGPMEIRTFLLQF
T3 sequence (Q653V7 34-885): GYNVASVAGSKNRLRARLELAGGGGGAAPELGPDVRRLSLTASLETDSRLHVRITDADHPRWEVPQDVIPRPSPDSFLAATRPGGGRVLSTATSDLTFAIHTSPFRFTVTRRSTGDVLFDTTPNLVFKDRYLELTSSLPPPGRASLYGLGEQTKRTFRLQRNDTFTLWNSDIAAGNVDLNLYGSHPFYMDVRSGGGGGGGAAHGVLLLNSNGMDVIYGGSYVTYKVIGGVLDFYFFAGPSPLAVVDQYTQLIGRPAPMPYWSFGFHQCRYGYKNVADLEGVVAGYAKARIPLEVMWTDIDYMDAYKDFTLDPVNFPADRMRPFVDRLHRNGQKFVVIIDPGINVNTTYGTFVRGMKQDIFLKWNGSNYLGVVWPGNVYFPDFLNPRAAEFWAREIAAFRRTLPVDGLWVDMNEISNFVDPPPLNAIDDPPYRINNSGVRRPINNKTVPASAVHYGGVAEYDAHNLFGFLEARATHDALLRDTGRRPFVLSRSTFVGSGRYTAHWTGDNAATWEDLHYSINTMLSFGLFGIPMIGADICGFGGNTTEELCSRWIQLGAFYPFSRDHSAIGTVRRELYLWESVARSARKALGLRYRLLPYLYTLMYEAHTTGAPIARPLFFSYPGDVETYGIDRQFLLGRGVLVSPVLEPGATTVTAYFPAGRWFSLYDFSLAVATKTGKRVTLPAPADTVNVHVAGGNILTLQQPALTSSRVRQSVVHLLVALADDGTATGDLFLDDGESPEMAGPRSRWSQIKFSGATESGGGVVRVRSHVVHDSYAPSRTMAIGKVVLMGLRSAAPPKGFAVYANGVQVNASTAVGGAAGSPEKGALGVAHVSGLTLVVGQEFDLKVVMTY
T5 sequence (P53341 whole entry): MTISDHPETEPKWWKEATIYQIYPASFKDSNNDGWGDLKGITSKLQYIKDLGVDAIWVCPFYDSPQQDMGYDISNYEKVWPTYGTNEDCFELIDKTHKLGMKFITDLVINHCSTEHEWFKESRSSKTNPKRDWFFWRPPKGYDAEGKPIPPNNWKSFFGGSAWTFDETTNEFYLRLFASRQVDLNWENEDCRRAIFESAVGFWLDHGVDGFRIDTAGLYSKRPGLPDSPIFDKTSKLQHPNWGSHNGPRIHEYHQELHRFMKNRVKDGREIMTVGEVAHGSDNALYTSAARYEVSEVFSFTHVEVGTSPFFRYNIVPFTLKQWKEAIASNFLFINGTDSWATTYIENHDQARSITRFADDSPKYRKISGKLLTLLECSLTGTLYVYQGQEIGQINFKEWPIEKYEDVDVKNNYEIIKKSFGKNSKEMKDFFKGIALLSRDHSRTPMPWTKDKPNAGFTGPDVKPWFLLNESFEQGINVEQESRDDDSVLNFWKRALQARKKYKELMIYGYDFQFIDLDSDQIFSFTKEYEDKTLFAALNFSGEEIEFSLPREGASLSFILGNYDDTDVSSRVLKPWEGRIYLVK
T2 sequence (Q42656 16-378): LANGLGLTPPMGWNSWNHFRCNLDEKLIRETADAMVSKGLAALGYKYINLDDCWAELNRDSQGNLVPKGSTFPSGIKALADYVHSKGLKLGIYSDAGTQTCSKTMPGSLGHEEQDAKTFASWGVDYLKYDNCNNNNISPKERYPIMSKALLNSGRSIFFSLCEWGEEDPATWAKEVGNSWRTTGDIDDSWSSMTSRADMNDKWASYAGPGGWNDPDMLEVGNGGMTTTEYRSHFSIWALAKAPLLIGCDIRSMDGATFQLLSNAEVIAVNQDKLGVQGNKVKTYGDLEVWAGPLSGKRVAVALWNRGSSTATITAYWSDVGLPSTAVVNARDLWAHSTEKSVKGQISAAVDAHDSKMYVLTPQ

OC[C@H]1NC[C@H](O)[C@@H](O)[C@@H]1O [1-Deoxynojirimycin (DNJ) (21), 1-Deoxynojirimycin]
IFN-γ secretion/production in splenocytes [1]: inhibited

OC[C@H]1[C@@H](O)[C@H](O)[C@H]2[C@H](O)[C@@H](O)CN21 [3-epi-casuarine (14), 3-epi-casuarine]
% inhibition, N-acetyl-β-gluc [2]: −1%
inhibition at 1000 µg/mL [3, 14]: -2%
% inhibition, Naringinase [4]: 21%
inhibition at 1000 µg/mL [5, 15]: 4%
% inhibition, glucosidase [6]: 56%
Metastatic morphology [7]: Metastasis restricted to apical tip of lung
inhibition at 1000 µg/mL [8, 16]: 13%
% inhibition, gluc (Bacillus) [9]: 12%

OC[C@@H]1[C@@H](O)[C@H](O)[C@H]2[C@@H](O)[C@@H](O)CN21 [7-epi-casuarine (11), 7-epi-casuarine]
inhibition at 1000 µg/mL [3, 14]: 25%
% inhibition, Naringinase [4]: −4%
inhibition at 1000 µg/mL [5, 15]: 1%
% inhibition, glucosidase [6]: 30%
inhibition at 1000 µg/mL [8, 16]: 73%
% inhibition, gluc (Bacillus) [9]: 5%

OC[C@H]1[C@@H](O)[C@H](O)[C@H]2[C@@H](O)[C@H](O)CN21 [Compound 12, 3,6,7-triepi-casuarine]
% inhibition, N-acetyl-β-gluc [2]: 19%
inhibition at 1000 µg/mL [3, 14]: -11%
% inhibition, Naringinase [4]: 0%
inhibition at 1000 µg/mL [5, 15]: 2%
% inhibition, glucosidase [6]: 6%
inhibition at 1000 µg/mL [10, 17]: 8%
inhibition at 1000 µg/mL [8, 16]: 0%
inhibition at 1000 µg/mL [11, 18]: 2%
% inhibition, gluc (Bacillus) [9]: 9%

OC[C@H]1[C@@H](O)[C@H](O)[C@@H]2[C@@H](O)[C@H](O)CN21 [Compound 21, 3,6,7,7a-tetraepi-casuarine]
% inhibition, N-acetyl-β-gluc [2]: 27%
% inhibition, Naringinase [4]: 5%
inhibition at 1000 µg/mL [5, 15]: -3%
% inhibition, glucosidase [6]: 44%
inhibition at 1000 µg/mL [10, 17]: 1%
inhibition at 1000 µg/mL [8, 16]: 46%
% inhibition, gluc (Bacillus) [9]: −2%

OC[C@H]1[C@@H](O)[C@H](O)[C@@H]2[C@@H](O)[C@@H](O)CN21 [Compound 22, 3,7,7a-triepi-casuarine]
% inhibition, Naringinase [4]: 10%
% inhibition, glucosidase [6]: 52%
inhibition at 1000 µg/mL [8, 16]: 0%
inhibition at 1000 µg/mL [11, 18]: 29%
% inhibition, gluc (Bacillus) [9]: 87%

O[C@@H]1[C@@H]2[C@@H](O)[C@H](O)[C@H](O)CN2C[C@H]1O [Compound 35, 2-α-hydroxy-6-epi-castanospermine]
% inhibition, N-acetyl-β-gluc [2]: 20%
inhibition at 1000 µg/mL [3, 19]: 0%
% inhibition, Naringinase [4]: 0%
inhibition at 1000 µg/mL [5, 20]: -5%
% inhibition, β-glucosidase [6]: −3%
inhibition at 1000 µg/mL [10, 21]: 11%
inhibition at 1000 µg/mL [8, 22]: 61%
inhibition at 1000 µg/mL [11, 23]: -5%
% inhibition, β-galactosidase [12]: −1%
% inhibition, α-gluc (Bacillus) [9]: −12%

OC[C@H]1N[C@H](c2ccc(O)cc2)[C@@H](O)[C@@H]1O [Compound 36, PLB1]
% inhibition, N-acetyl-β-gluc [2]: 30%
inhibition at 1000 µg/mL [3, 24]: 13%
% inhibition, Naringinase [4]: 41%
inhibition at 1000 µg/mL [5, 20]: 43%
% inhibition, β-glucosidase [6]: 52%
inhibition at 1000 µg/mL [10, 21]: 42%
inhibition at 1000 µg/mL [8, 25]: 54%
inhibition at 1000 µg/mL [11, 23]: 19%
% inhibition, β-galactosidase [12]: 52%
% inhibition, α-gluc (Bacillus) [9]: 62%

O[C@@H]1[C@@H]2[C@@H](O)[C@H](O)[C@@H](O)CN2C[C@@H]1O [Compound 44, 2-β-hydroxycastanospermine]
% inhibition, N-acetyl-β-gluc [2]: 13%
% inhibition, Naringinase [4]: 6%
inhibition at 1000 µg/mL [5, 20]: -4%
% inhibition, β-glucosidase [6]: 20%
inhibition at 1000 µg/mL [10, 21]: 1%
inhibition at 1000 µg/mL [11, 23]: 8%
% inhibition, β-galactosidase [12]: −1%

OCCN1C[C@@H](O)[C@H](O)[C@H]1CO [Compound 55, N-hydroxyethyl-1,4-dideoxy-1,4-imino-D-arabinitol]
% inhibition, N-acetyl-β-gluc [2]: 6%
inhibition at 1000 µg/mL [3, 24]: -7%
% inhibition, Naringinase [4]: 44%
inhibition at 1000 µg/mL [5, 20]: 4%
% inhibition, β-glucosidase [6]: 44%
inhibition at 1000 µg/mL [10, 21]: 5%
inhibition at 1000 µg/mL [8, 25]: 71%
inhibition at 1000 µg/mL [11, 23]: -3%
% inhibition, β-galactosidase [12]: 13%
% inhibition, α-gluc (Bacillus) [9]: 15%

O[C@@H]1[C@@H]2[C@@H](O)[C@H](O)[C@@H](O)CN2C[C@H]1O [Compound 64, 2-α-hydroxycastanospermine]
% inhibition, N-acetyl-β-gluc [2]: 21%
inhibition at 1000 µg/mL [3, 19]: 4%
% inhibition, Naringinase [4]: 76%
inhibition at 1000 µg/mL [5, 20]: -9%
% inhibition, β-glucosidase [6]: −1%
inhibition at 1000 µg/mL [10, 21]: 21%
inhibition at 1000 µg/mL [8, 22]: 12%
inhibition at 1000 µg/mL [11, 23]: -6%
% inhibition, β-galactosidase [12]: −3%
% inhibition, α-gluc (Bacillus) [9]: −15%

COc1cc([C@H]2N[C@H](CO)[C@@H](O)[C@@H]2O)ccc1O [Compound 65, PLB2]
% inhibition, N-acetyl-β-gluc [2]: 0%
inhibition at 1000 µg/mL [3, 24]: -4%
% inhibition, Naringinase [4]: 4%
inhibition at 1000 µg/mL [5, 20]: 4%
% inhibition, β-glucosidase [6]: 25%
inhibition at 1000 µg/mL [10, 21]: -16%
inhibition at 1000 µg/mL [8, 25]: 0%
inhibition at 1000 µg/mL [11, 23]: 37%
% inhibition, β-galactosidase [12]: 18%
% inhibition, α-gluc (Bacillus) [9]: 37%

OCC1N[C@H](CO)[C@@H](O)[C@@H]1O (some centres unmarked) [DMDP, 2,6-dihydroxymethyl-3,4-dihydroxypyrrolidine]
% inhibition, N-acetyl-β-gluc [2]: 25%
inhibition at 1000 µg/mL [3, 24]: -4%
% inhibition, Naringinase [4]: 0%
inhibition at 1000 µg/mL [5, 20]: -3%
% inhibition, β-glucosidase [6]: 81%
inhibition at 1000 µg/mL [10, 21]: 25%
inhibition at 1000 µg/mL [8, 25]: 91%
inhibition at 1000 µg/mL [11, 23]: 74%
% inhibition, β-galactosidase [12]: 71%
% inhibition, α-gluc (Bacillus) [9]: 85%

CC(=O)OCC(CCn1cnc2cnc(N)nc21)COC(C)=O [famciclovir, reference compound]
ear thickness response [13]: almost completely negated
